For this test, the system named is Schistosoma mansoni. The test is described as follows: High throughput screening of compounds against Schistosoma mansoni motility. In kind it is functional. On the set-up: dose or concentration left out as unconfirmed.

The results in this text go back to ChEMBL document CHEMBL3988442, “University of Dundee, Small-Polar-MMV Screening Library” (2021).

Molecules are shown by their SMILES.

As to `Oc1ccc(N2CCN(Cc3cc4c(cc3Br)OCCO4)CC2)cc1`, the “Percent Effect” value is listed as -18.88%. As for `N#Cc1c(F)cccc1N1CCC(NS(=O)(=O)c2cccs2)CC1`, the figure is 28.82%; as for `CNC(=O)CSc1nc2c(cnn2Cc2ccc(F)cc2)c(=O)[nH]1`, -34.73%; as for `CN(C)C(CNS(=O)(=O)c1ccc(F)cc1F)c1cccn1C` (stereo not given), 13.79%. Take `COC(=O)c1sccc1S(=O)(=O)NCC1(O)CCOc2ccccc21` (stereo not given): the “Percent Effect” value is -15.01%. As for `Cc1noc(-c2ccc(N3CCCC(C(=O)N4CCSCC4)C3)nc2)n1` (stereo not given), the “Percent Effect” value is 26.74%.

`O=C1CCSCC(C(=O)N2CCN(C3CCCCC3)CC2)N1` (stereo not given): the “Percent Effect” value is reported as -48.25%. As for `N#Cc1ccc(OC2CCN(C(=O)c3ccc4c(c3)OCO4)CC2)nc1`, the figure is -46.44%; as for `CCc1nnc2n1CCN(Cc1csc(-c3cnn(C)c3)n1)C2`, -30.99%.

Turning to `CC(NC(=O)N(C)Cc1ccncc1)c1nncn1C` (stereo not given), the “Percent Effect” value is recorded as -16.24%. In the case of `CC(CNC(=O)Nc1ccc(N(C)C)nc1)Cn1cccn1` (stereo not given), the “Percent Effect” value is listed as -28.69%. As for `CCOc1cc(C)nc(N2CCN(Cc3nccn3C)CC2)n1`, the figure is -40.52%; as for `COc1ccccc1OCC(=O)Nc1ncccc1OC(F)F`, 13.82%. Regarding `Cn1ccnc1-c1cccc(NC(=O)NCCN2CCOCC2)c1`, the “Percent Effect” value is -15.26%.

`Cn1c(CNc2c(F)cccc2-n2cccn2)cc(=O)n(C)c1=O`: the “Percent Effect” value is reported as -12.04%.

For the compound `Cc1cnn(CCC(=O)N2CCOC(c3nc(C(C)(C)C)n[nH]3)C2)c1` (stereo not given), the “Percent Effect” value was -4.27%. For `Cn1cc(-c2csc(CN3CCOCC3)n2)cn1` the value was 14.63%; for `CC(OCC(F)(F)F)C(=O)N1CCN(S(C)(=O)=O)CC1` (stereo not given), -54.53%; for `CCSc1cc(C(=O)NCCC(=O)Nc2ccccn2)ccn1`, -76.69%. For `CC(C#N)CSc1ccccc1NCC(=O)NCc1ccccc1` (stereo not given) the value was -63.78%. `Cc1ccn(-c2ccccc2NCc2ncc[nH]2)n1`: the “Percent Effect” value was -21.01%.

`CCOc1ncccc1NC(=O)c1sccc1C`: the “Percent Effect” value was -42.63%. Take `Cc1cc(C(=O)N2CCCC2c2nnc3n2CCCCC3)no1` (stereo not given): the “Percent Effect” value is on record as -2.272%. For `CN1CCN(CCCNC(=O)c2cc(Cl)c3c(c2)OCO3)CC1` the value was -22.9%; for `CN(C)C(=O)c1cccc(NC(=O)N(CCO)Cc2ccsc2)c1`, -21.08%. Consider `COc1cccc(NC(=O)N(CCO)Cc2ccsc2)c1`, for which the “Percent Effect” value is on record as -62.57%.

Turning to `CCc1nnc2n1CCN(C(=O)c1cnc3ccccc3n1)C2`, the “Percent Effect” value is given as -44.56%.

As to `CCOc1ncccc1NC(=O)c1cc(C)c(C)s1`, the “Percent Effect” value is -34.96%. `N#CC1(C(=O)Nc2ccc(OC(F)F)cc2)CCCC1`: the “Percent Effect” value was found to be 6.367%.

As to `NC(=O)CSCCC(=O)N1CCCC1c1ccsc1` (stereo not given), the “Percent Effect” value amounted to 10.97%.

With `N#Cc1ccc(CNCC2CCN(CCO)CC2)cc1`, the “Percent Effect” value is reported as -28.87%. On to `Cc1cc(C)n(CC2CCCN2C(=O)c2ccc3c(c2)nnn3C)n1` (stereo not given), for which the “Percent Effect” value was -59.08%. As for `CSCC(CCO)NC(=O)Nc1cc(C)ccc1C` (stereo not given), the figure is -11.31%; as for `CS(=O)(=O)c1ccc(CNCC2CCN(CCO)CC2)cc1`, -49.34%; as for `CCN(Cc1cccnc1)CC1CCCO1` (stereo not given), -47.82%. For `Cc1cccc(CNCc2c(C(C)C)nn(C)c2N2CCOCC2)n1` the value was -46%; for `Cc1nc2ccccn2c1CN(Cc1cccnc1)CC1CCCO1` (stereo not given), -47.66%. For the compound `O=C(CN(Cc1cccnc1)CC1CCCO1)Nc1ccc(F)cc1` (stereo not given), the “Percent Effect” value is on record as -30.42%. On to `CCc1nc(C2CCCN2CC(=O)Nc2c(C)nn(C)c2C)no1` (stereo not given), for which the “Percent Effect” value was -35.66%. Take `Cc1nc(C)n(CC2CCCN2CCCc2ccccc2)n1` (stereo not given): the “Percent Effect” value is reported as -9.599%. As for `Cc1nc(C)n(CC2CCCN2CC(=O)NCCc2ccccc2)n1` (stereo not given), the figure is -20.52%.

`O=C(Cc1ccc(O)c(Cl)c1)N1CCN(CC2CC2)[C@@H]2CS(=O)(=O)C[C@@H]21`: the “Percent Effect” value is given as -40.54%.

As to `C[C@@H]1CN(C2(C(=O)N3CCCCCC3)Cc3ccccc3C2)C[C@H](C)O1`, the “Percent Effect” value worked out at 12.64%. For `O=C1CCC2(CCN(Cc3cc(F)cc(F)c3)CC2)CN1CCO` the value was 4.054%; for `CN(C)C(=O)c1ccc2c(c1)N(C)C(CC(=O)NC(C)(C)CO)CO2` (stereo not given), 4.699%.

Turning to `O[C@H]1[C@H](n2cc(-c3cccnc3)nn2)c2ccccc2C12CCNCC2`, the “Percent Effect” value was -35.88%. In the case of `CC(C)(CO)NC(=O)C1CCC(=O)N(Cc2ccc(Cl)cc2)C1` (stereo not given), the “Percent Effect” value is recorded as -0.822%.

Consider `CCS(=O)(=O)N1CCC2(CCCN(Cc3cc(OC)ccc3F)C2)C1` (stereo not given), for which the “Percent Effect” value came out at 49.58%. For `COCc1cc(NCCc2ccc(F)cc2)n2nccc2n1`, the “Percent Effect” value is -25.55%.

For the compound `CCC(=O)N1CCC(c2nnc(Cn3cccn3)n2C2CC2)CC1`, the “Percent Effect” value is given as -15.52%.

As to `CN(C)S(=O)(=O)N1C[C@@H]2CC[C@H](C1)N(Cc1ccc3nsnc3c1)C2`, the “Percent Effect” value is reported as -23.4%.

Take `CCN(CCn1cccn1)Cc1nc(-c2ccccc2F)oc1C`: the “Percent Effect” value was -13.18%.

For the compound `COCC(O)CNC(=O)c1coc(COc2ccc3sc(C)nc3c2)n1` (stereo not given), the “Percent Effect” value came to 22.1%. For `CN(CCCc1cnn(C)c1)C(=O)C1CCOC1` (stereo not given) the value was -54.96%. As for `O=C(CCCc1cn[nH]c1)N1C[C@@H](CN2CCOCC2)[C@@H](CO)C1`, the figure is -60.63%; as for `O=S(=O)(Cc1ccccc1)NCc1ccco1`, -25.54%; as for `O=C(CCc1cc2n(n1)CCCN(Cc1ccccc1F)C2)NC1CC1`, -12.36%. As for `Cc1ccccc1N1CCCN(C(=O)CCCS(N)(=O)=O)CC1`, the figure is -57.21%.

As to `COCc1cn([C@@H]2c3ccccc3C3(CCNCC3)[C@H]2O)nn1`, the “Percent Effect” value is reported as -22.09%. As for `NC(=O)COc1cccc(C(=O)Nc2cnc3n2CCCC3)c1`, the figure is -21.49%; as for `Cc1nc[nH]c1CN1C[C@@H]2CC[C@H](C1)N(C(=O)CCc1cnn(C)c1)C2`, -10.53%; as for `O=C(CCc1ccsc1)N1CCC(Cc2ccc(CO)cc2)C1` (stereo not given), 6.677%. For `Cc1cc(N2CCN3CCCCC3C2)n2nc(C)c(C)c2n1` (stereo not given) the value was -7.768%. As for `CN(C)C(=O)c1ccc2c(c1)N(C)C(CC(=O)NCCC(C)(C)C)CO2` (stereo not given), the figure is -13.7%. For `CN(C)C(C(=O)N1CCC(N2CCSCC2)CC1)c1ccccc1F` (stereo not given), the “Percent Effect” value is recorded as 10.46%.

As for `CC(C)NC(=O)c1nnn(-c2cccc(C(F)(F)F)c2)c1N`, the “Percent Effect” value is given as 32.01%.

For `CCN(c1ccc(C(=O)N2CCCC(C)C2)cc1)S(=O)(=O)CC` (stereo not given), the “Percent Effect” value was -11.81%. For the compound `O=C1CC(c2cccs2)c2snc(C(=O)O)c2N1` (stereo not given), the “Percent Effect” value was 18.04%. For `O=C(c1cccc(S(=O)(=O)NCCCc2ncc[nH]2)c1)N1CCOCC1`, the “Percent Effect” value was -82.46%.

With `Cl.O=C(Cc1ccc(F)cc1)N1CCN(CC(O)C2CC2)CC1` (stereo not given), the “Percent Effect” value is -44.17%.
